Like-named read-outs stand apart in the source and are kept apart here.
Experiments:
[1] = target: CAMKKα (Homo sapiens, UniProt Q8N5S9); experiment: Kinase screen: CAMKKa assay; assay type: biochemical; conditions: read-out: Mean Remaining Enzyme Activity (%)
Procedure: Generally, the same procedure was used for all assays. Since the total assay volume was 25.5 microliters, 0.5 microliters of inhibitors at 51× assay concentration were added to the plates before any other addition.
The basic procedure was to add 0.5 microliters inhibitor/control in DMSO to plate. Fifteen microliters of enzyme/substrate/buffer mix were added and incubated for 5 min. Ten microliters MgATP at the relevant concentration were added and incubated for 30 min. The assay was stopped by adding 5 microliters of 3% orthophosphoric acid. The assay was transferred to a p81 filter plate and read in a scintillation counter of 30 sec/well. Note that this assay procedure was not followed for MKK1, which instead involved a two-step assay, and PKC alpha, which required the addition of lipid vesicles.
CAMKKa assay: 5-20 mU of CAMKKa (diluted in 50 mM Tris (pH 7.5), 0.1 mM EGTA, 1 mg/ml BSA, 0.1%, b-Mercaptoethanol) was assayed against substrate peptide ([…]) (SEQ ID NO: 31) in a final volume of 25.5 μl containing 50 mM Tris (pH 7.5), 0.1 mM EGTA, 0.5 mM CaCl2, 0.3 μM calmodulin, 0.1%, b-Mercaptoethanol, 300 μM substrate peptide, 10 mM magnesium acetate and 0.02 mM [33P-g-ATP] (500-1000 cpm/pmole) and incubated for 30 mins at room temperature. Assays were stopped by addition of 5 μl of 0.5M (3%) orthophosphoric acid. […]

[2] = tested on: RNA polymerase II phosphorylation (P-Ser-2, P-Ser-5); experiment: Inhibition of phosphorylation of RNA polymerase II (immunoblot, MCF-7 cells); assay type: cell-based; conditions: MCF-7 cells treated 4 hours
Procedure: MCF-7 breast cancer cells were treated with BS-181 or Roscovitine at the concentrations shown in FIG. 2 for 4 hours prior to harvesting of cells. […] Immunblotting for β-actin was used as loading control for protein content.

[3] = tested on: OVCAR-4; experiment: cells; conditions: Homo sapiens
[4] = tested on: UACC-257
[5] = tested on: CCRF-CEM; conditions: for Mean Optical Densities / Percent Growth: CCRF-CEM
[6] = tested on: MDA-MB-435; experiment: cells; conditions: Homo sapiens
[7] = tested on: NCI-H460; experiment: cells; conditions: Homo sapiens
[8] = tested on: HOP-92
[9] = tested on: A498; experiment: cells; conditions: Homo sapiens
[10] = tested on: SN12C; conditions: for Mean Optical Densities / Percent Growth: SN12C
[11] = tested on: SW-620
[12] = tested on: SK-MEL-2
[13] = tested on: SNB-19; experiment: cells; conditions: Homo sapiens
[14] = tested on: NCI-H522; experiment: cells; conditions: Homo sapiens
[15] = tested on: HCT-15
[16] = UACC-257, log10 concentration −4.0
[17] = UACC-257, log10 concentration −5.0
[18] = UACC-257, log10 concentration −6.0
[19] = UACC-257, log10 concentration −7.0
[20] = UACC-257, log10 concentration −8.0
[21] = HOP-92, log10 concentration −4.0
[22] = HOP-92, log10 concentration −5.0
[23] = HOP-92, log10 concentration −6.0
[24] = HOP-92, log10 concentration −7.0
[25] = HOP-92, log10 concentration −8.0
[26] = SW-620, log10 concentration −4.0
[27] = SW-620, log10 concentration −5.0
[28] = SW-620, log10 concentration −7.0
[29] = SW-620, log10 concentration −8.0
[30] = SK-MEL-2, log10 concentration −4.0
[31] = SK-MEL-2, log10 concentration −5.0
[32] = SK-MEL-2, log10 concentration −6.0
[33] = SK-MEL-2, log10 concentration −7.0
[34] = SK-MEL-2, log10 concentration −8.0
[35] = HCT-15, log10 concentration −4.0
[36] = HCT-15, log10 concentration −5.0
[37] = HCT-15, log10 concentration −6.0
[38] = HCT-15, log10 concentration −7.0
[39] = HCT-15, log10 concentration −8.0

Question: Which results are given for `CC(C)c1cnn2c(NCc3ccccc3)cc(NCCCCCCCN)nc12` [BS-181]?
Answer: remaining activity at 10 µM [1]: 57%; Inhibition of phosphorylation of RNA polymerase II [2]: capable of inhibiting phosphorylation of RNAPolymerase II

Question: Which results are given for `CC(C)c1cnn2c(NCc3ccccc3)cc(N[C@@H](CO)[C@H](O)CO)nc12` [ICEC0318, (3S)-3-(7-(Benzylamino)-3-isopropylpyrazolo[1,5-a]pyrimidin-5-ylamino)butane-1,2,4-triol]?
Answer: GI50 ([3]; OVCAR-4): 343 nM; CC50 ([3]; OVCAR-4, read-out: LC50): > 100000 nM; TGI ([4]; UACC-257 (Melanoma)): 3.88E−5; Mean Optical Densities [4, 16]: 0.848; Percent Growth [4, 16]: −4%; Mean Optical Densities [4, 17]: 0.933; Percent Growth [4, 17]: 5%; Mean Optical Densities [4, 18]: 0.948; Percent Growth [4, 18]: 7%; Mean Optical Densities [4, 19]: 1.891; Percent Growth [4, 19]: 100%; Mean Optical Densities [4, 20]: 1.906; Percent Growth [4, 20]: 102%; TGI ([5]; CCRF-CEM (Leukemia)): >1.00E−4; Mean Optical Densities ([5]; log10 concentration −4.0): 0.227; Percent Growth ([5]; log10 concentration −4.0): 11%; Mean Optical Densities ([5]; log10 concentration −5.0): 0.330; Percent Growth ([5]; log10 concentration −5.0): 33%; Mean Optical Densities ([5]; log10 concentration −6.0): 0.279; Percent Growth ([5]; log10 concentration −6.0): 22%; Mean Optical Densities ([5]; log10 concentration −7.0): 0.565; Percent Growth ([5]; log10 concentration −7.0): 82%; Mean Optical Densities ([5]; log10 concentration −8.0): 0.769; Percent Growth ([5]; log10 concentration −8.0): 125%; GI50 ([6]; MDA-MB-435): 309 nM; CC50 ([6]; MDA-MB-435, read-out: LC50): > 100000 nM; GI50 ([7]; NCI-H460): 258 nM; CC50 ([7]; NCI-H460, read-out: LC50): > 100000 nM; TGI ([8]; HOP-92 (Non-Small Cell Lung Cancer)): >1.00E−4; Mean Optical Densities [8, 21]: 0.594; Percent Growth [8, 21]: 12%; Mean Optical Densities [8, 22]: 0.612; Percent Growth [8, 22]: 16%; Mean Optical Densities [8, 23]: 0.645; Percent Growth [8, 23]: 22%; Mean Optical Densities [8, 24]: 0.981; Percent Growth [8, 24]: 86%; Mean Optical Densities [8, 25]: 1.050; Percent Growth [8, 25]: 99%; GI50 ([9]; A498): 235 nM; CC50 ([9]; A498, read-out: LC50): 993 nM; TGI ([10]; SN12C (Renal Cancer)): >1.00E−4; Mean Optical Densities ([10]; log10 concentration −4.0): 0.531; Percent Growth ([10]; log10 concentration −4.0): 11%; Mean Optical Densities ([10]; log10 concentration −5.0): 0.578; Percent Growth ([10]; log10 concentration −5.0): 14%; Mean Optical Densities ([10]; log10 concentration −6.0): 0.620; Percent Growth ([10]; log10 concentration −6.0): 18%; Mean Optical Densities ([10]; log10 concentration −7.0): 1.515; Percent Growth ([10]; log10 concentration −7.0): 84%; Mean Optical Densities ([10]; log10 concentration −8.0): 1.702; Percent Growth ([10]; log10 concentration −8.0): 98%; TGI ([11]; SW-620 (Colon Cancer)): 1.00E−6; Mean Optical Densities [11, 26]: 0.101; Percent Growth [11, 26]: −29%; Mean Optical Densities [11, 27]: 0.125; Percent Growth [11, 27]: −12%; Mean Optical Densities ([11]; SW-620, log10 concentration −6.0): 0.412; Mean Optical Densities [11, 28]: 0.782; Percent Growth [11, 28]: 92%; Mean Optical Densities [11, 29]: 0.839; Percent Growth [11, 29]: 100%; TGI ([12]; SK-MEL-2 (Melanoma)): 8.22E−5; Mean Optical Densities [12, 30]: 1.061; Percent Growth [12, 30]: −1%; Mean Optical Densities [12, 31]: 1.218; Percent Growth [12, 31]: 12%; Mean Optical Densities [12, 32]: 1.290; Percent Growth [12, 32]: 18%; Mean Optical Densities [12, 33]: 2.275; Percent Growth [12, 33]: 99%; Mean Optical Densities [12, 34]: 2.282; Percent Growth [12, 34]: 100%; GI50 ([13]; SNB-19): 283 nM; CC50 ([13]; SNB-19, read-out: LC50): > 100000 nM; GI50 ([14]; NCI-H522): 375 nM; CC50 ([14]; NCI-H522, read-out: LC50): > 100000 nM; TGI ([15]; HCT-15 (Colon Cancer)): >1.00E−4; Mean Optical Densities [15, 35]: 0.268; Percent Growth [15, 35]: 2%; Mean Optical Densities [15, 36]: 0.286; Percent Growth [15, 36]: 3%; Mean Optical Densities [15, 37]: 0.481; Percent Growth [15, 37]: 21%; Mean Optical Densities [15, 38]: 1.262; Percent Growth [15, 38]: 90%; Mean Optical Densities [15, 39]: 1.354; Percent Growth [15, 39]: 98%
